Experimental data: ChEMBL document CHEMBL1201862, “PubChem BioAssay data set” (2004)
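Dose response: 5 concentrations. Exposure: 48 h. Format: 96-well plates. Endpoint: linear interpolation; highest concentration if not reached. Here, GI50 denotes the concentration required for 50% inhibition of growth.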 Active and inactive are the calls of the source. No stated cut-off is given here; in the data, active = GI50 up to about 1.1 µM and inactive = higher.

Legend:
Test in all cases: inhibition of tumour cell growth, NCI panel, 48 h
A498 = tested on: A498
ACHN = tested on: ACHN
COLO 205 = tested on: COLO 205
HCC 2998 = tested on: HCC 2998
HCT-116 = tested on: HCT-116
HOP-62 = tested on: HOP-62
Hs-578T = tested on: Hs-578T
K562 = tested on: K562
LOX IMVI = tested on: LOX IMVI
M14 = tested on: M14
MCF7 = tested on: MCF7
NCI-H23 = tested on: NCI-H23
NCI-H460 = tested on: NCI-H460
NCI/ADR-RES = tested on: NCI/ADR-RES
OVCAR-4 = tested on: OVCAR-4
PC-3 = tested on: PC-3
SF-268 = tested on: SF-268
SF-295 = tested on: SF-295
SN12C = tested on: SN12C
RXF 393 = tested on: RXF 393

Measured: GI50

O=[N+]([O-])C(=C(Nc1ccccc1)Nc1ccccc1)/C(Cl)=C(\Cl)Br
inactive: A498 19.1 µM | ACHN 11.4 µM | COLO 205 > 10 µM | HCC 2998 17.1 µM | HCT-116 6.05 µM | HOP-62 22 µM | Hs-578T 27 µM | K562 2.92 µM | LOX IMVI 3.27 µM | M14 4.89 µM | MCF7 12.5 µM | NCI-H23 12.1 µM | NCI-H460 21.3 µM | NCI/ADR-RES 9.48 µM | OVCAR-4 11.9 µM | PC-3 15.6 µM | SF-268 16.8 µM | SF-295 14.8 µM | SN12C 13.7 µM

CCCCCCC(CCl)c1sc(-c2csc(CCNC(=O)OC(C)(C)C)n2)nc1C(=O)OC (configuration not stated)
inactive: A498 28.8 µM | ACHN 23.3 µM | COLO 205 35.6 µM | HCC 2998 22.7 µM | HCT-116 15.5 µM | HOP-62 39.8 µM | Hs-578T 16.2 µM | K562 13.5 µM | LOX IMVI 13.2 µM | MCF7 11 µM | NCI-H23 15.3 µM | NCI-H460 18.2 µM | NCI/ADR-RES 2.32 µM | OVCAR-4 9.98 µM | PC-3 15.9 µM | SF-268 20.3 µM | SF-295 32.2 µM | SN12C 19.2 µM

CS(=O)(=O)Nc1ccc(N2Cc3c[nH]c4ccc5nccc2c5c34)cc1
inactive: A498 23.2 µM | ACHN 28.6 µM | COLO 205 11.9 µM | HCT-116 9.14 µM | HOP-62 17.5 µM | Hs-578T 39.1 µM | K562 11.4 µM | LOX IMVI 12.2 µM | M14 15.5 µM | MCF7 8.65 µM | NCI-H23 24.6 µM | NCI-H460 19.4 µM | NCI/ADR-RES > 100 µM | OVCAR-4 14 µM | PC-3 16.1 µM | SF-295 27.7 µM | SN12C 14 µM

O=C1C2SC34c5c2c2ccccc2n5CCC3CCCN14 (configuration not stated)
inactive: A498 > 100 µM | ACHN > 100 µM | COLO 205 > 100 µM | HCT-116 > 100 µM | HOP-62 31.8 µM | Hs-578T 38.1 µM | K562 > 100 µM | LOX IMVI > 100 µM | M14 > 100 µM | MCF7 > 100 µM | NCI-H23 > 100 µM | NCI/ADR-RES > 100 µM | OVCAR-4 37.5 µM | PC-3 54.8 µM | RXF 393 98.4 µM | SF-268 39.4 µM | SF-295 55.2 µM | SN12C > 100 µM

O=C(O)CNC(=O)c1ccc(-c2ccccc2)cc1
inactive: A498 > 100 µM | ACHN > 100 µM | COLO 205 > 100 µM | HCC 2998 > 100 µM | HCT-116 > 100 µM | HOP-62 > 100 µM | Hs-578T 75.7 µM | K562 > 100 µM | LOX IMVI > 100 µM | M14 > 100 µM | MCF7 > 100 µM | NCI-H23 > 100 µM | NCI-H460 > 100 µM | NCI/ADR-RES > 100 µM | PC-3 > 100 µM | RXF 393 > 100 µM | SF-268 > 100 µM | SF-295 > 100 µM | SN12C > 100 µM

CCO[C@H]1C[C@@H](c2ccccc2)[C@]2(C)C[C@H](C(=O)OC)ON2O1
inactive: A498 > 100 µM | ACHN > 100 µM | COLO 205 > 100 µM | HCT-116 > 100 µM | HOP-62 > 100 µM | Hs-578T > 100 µM | K562 > 100 µM | LOX IMVI > 100 µM | M14 > 100 µM | MCF7 > 100 µM | NCI-H23 > 100 µM | NCI/ADR-RES > 100 µM | OVCAR-4 > 100 µM | PC-3 > 100 µM | RXF 393 > 100 µM | SF-268 > 100 µM | SF-295 > 100 µM | SN12C > 100 µM

CC(C)(Oc1ccc(Cl)cc1)C(=O)N(C(=O)N1CCCCC1)c1ccccc1
inactive: A498 17 µM | ACHN 14.9 µM | COLO 205 17.4 µM | HCT-116 5.32 µM | Hs-578T 16.9 µM | K562 8.17 µM | LOX IMVI 11.4 µM | M14 17.5 µM | MCF7 19.6 µM | NCI-H23 14.2 µM | NCI/ADR-RES 14.5 µM | PC-3 3.4 µM | RXF 393 18 µM | SF-268 20.1 µM | SN12C 17 µM

CCc1ccccc1NC(=O)C(C#N)C1=C(Cl)C(=O)c2ccccc2C1=O (configuration not stated)
inactive: ACHN 15.2 µM | COLO 205 15.7 µM | HCT-116 13 µM | HOP-62 19.1 µM | Hs-578T 19.3 µM | K562 8.04 µM | LOX IMVI 13.2 µM | M14 6.71 µM | MCF7 22.8 µM | NCI-H23 12.6 µM | NCI-H460 19.7 µM | NCI/ADR-RES 16.7 µM | OVCAR-4 13.6 µM | PC-3 14.6 µM | RXF 393 20.5 µM | SF-268 21.7 µM | SF-295 20.9 µM | SN12C 13.1 µM

Cc1ccnc(NS(=O)(=O)c2ccc(N=[N+]=[N-])cc2)n1
inactive: A498 > 100 µM | ACHN > 100 µM | COLO 205 > 100 µM | HCT-116 > 100 µM | HOP-62 > 100 µM | Hs-578T > 100 µM | LOX IMVI > 100 µM | M14 > 100 µM | MCF7 > 100 µM | NCI-H23 > 100 µM | NCI-H460 > 100 µM | NCI/ADR-RES > 100 µM | OVCAR-4 > 100 µM | PC-3 > 100 µM | RXF 393 > 100 µM | SF-268 > 100 µM | SF-295 > 100 µM | SN12C > 100 µM

O=c1c(SSc2coc3cc(F)ccc3c2=O)coc2cc(F)ccc12
inactive: ACHN 6.92 µM | COLO 205 17.4 µM | HCC 2998 16.1 µM | HCT-116 5.14 µM | HOP-62 19.8 µM | Hs-578T 14.3 µM | K562 19.9 µM | LOX IMVI 2.65 µM | MCF7 14.6 µM | NCI-H23 25.1 µM | NCI-H460 4.43 µM | NCI/ADR-RES 17.3 µM | PC-3 7.82 µM | RXF 393 32.2 µM | SF-268 26.3 µM | SF-295 6.68 µM | SN12C 15.2 µM

CC(C)CCn1c(=O)c2c(=O)[nH][nH]c2c2ccccc21
inactive: A498 > 100 µM | ACHN > 100 µM | COLO 205 > 100 µM | HCC 2998 > 100 µM | HCT-116 > 100 µM | HOP-62 > 100 µM | Hs-578T > 100 µM | K562 > 100 µM | LOX IMVI > 100 µM | MCF7 > 100 µM | NCI-H23 > 100 µM | NCI-H460 > 100 µM | NCI/ADR-RES > 100 µM | OVCAR-4 > 100 µM | PC-3 > 100 µM | SF-295 > 100 µM | SN12C > 100 µM

O=C(NC(CS)C(=O)O)c1cccc2c(=O)c3ccccc3[nH]c12 (configuration not stated)
inactive: A498 > 100 µM | ACHN > 100 µM | COLO 205 > 100 µM | HCT-116 > 100 µM | HOP-62 > 100 µM | Hs-578T > 100 µM | K562 > 100 µM | LOX IMVI > 100 µM | M14 > 100 µM | MCF7 > 100 µM | NCI-H23 > 100 µM | NCI/ADR-RES > 100 µM | OVCAR-4 > 100 µM | PC-3 > 100 µM | SF-268 > 100 µM | SF-295 > 100 µM | SN12C > 100 µM

Nc1ccc(/N=N\c2ccc(-c3ccc(O)cc3)cc2)c2ccc(S(=O)(=O)O)cc12
inactive: A498 > 100 µM | ACHN > 100 µM | COLO 205 > 100 µM | HCT-116 > 100 µM | HOP-62 > 100 µM | Hs-578T > 100 µM | K562 > 100 µM | LOX IMVI > 100 µM | M14 > 100 µM | MCF7 > 100 µM | NCI-H23 > 100 µM | NCI-H460 > 100 µM | NCI/ADR-RES > 100 µM | OVCAR-4 > 100 µM | PC-3 > 100 µM | RXF 393 > 100 µM | SF-268 > 100 µM | SF-295 > 100 µM | SN12C > 100 µM

N=C1/C(=C/c2ccco2)C(=O)N=C2SC=NN12
inactive: ACHN > 100 µM | COLO 205 > 100 µM | HCC 2998 > 100 µM | HCT-116 > 100 µM | HOP-62 > 100 µM | Hs-578T > 100 µM | K562 > 100 µM | LOX IMVI > 100 µM | M14 > 100 µM | MCF7 > 100 µM | NCI-H23 > 100 µM | NCI-H460 > 100 µM | NCI/ADR-RES > 100 µM | OVCAR-4 > 100 µM | PC-3 > 100 µM | RXF 393 > 100 µM | SF-268 > 100 µM | SF-295 > 100 µM | SN12C > 100 µM

Nc1nc(-c2ccccc2)c(CC(=O)O)s1
inactive: A498 > 100 µM | ACHN > 100 µM | COLO 205 > 100 µM | HCT-116 > 100 µM | HOP-62 > 100 µM | Hs-578T > 100 µM | K562 > 100 µM | LOX IMVI > 100 µM | M14 > 100 µM | MCF7 > 100 µM | NCI-H460 > 100 µM | NCI/ADR-RES > 100 µM | OVCAR-4 > 100 µM | PC-3 > 100 µM | RXF 393 > 100 µM | SF-268 > 100 µM | SF-295 > 100 µM | SN12C > 100 µM
